According to patent publication US20120065365A1, “Stable Radiopharmaceutical Compositions and Methods for Their Preparation” (BRACCO IMAGING S.P.A., priority 2003, published 2012):
Structures can show the parent of a compound that is named as a salt. Where two headings read alike, the source gives them in different places.

Experiments:
[1] = assay type: physicochemical; conditions: ^177Lu-A (3.6 mCi) prepared in presence of 2.5 mg/mL stabilizer
Procedure: To lead-shielded 4-mL vials was added 200 μL of the individual NaOAc-stabilizer solutions, 3.58 mCi ^177LuCl3 (avg) and 5.08 μg COMPOUND A (dissolved in water). The ratio of COMPOUND A to Lutetium was 3:1 for all samples. The reaction mixtures were heated to 100° C. for 5 minutes, then cooled, treated with Na2EDTA.2H2O, subdivided and stored as described in Example 9. The radiochemical purity (RCP) percentage data obtained are listed Table 12.

[2] = assay type: physicochemical; conditions: ^177Lu-A (2.7-3.7 mCi) prepared in presence of 1 mg/mL stabilizer; for RCP % t = 24 h (frozen): 24 h frozen (−10° C.)
Procedure: The injection volume was 10 μL.
Each individual stabilizer was prepared at a concentration of 1 mg/mL in sodium acetate (NaOAc) buffer (0.2 M, pH 4.8). […] The reaction mixture was heated to 100° C. for 5 minutes, and then cooled for 5 minutes in an ambient-temperature water hath. To each sample, 10 μL of 2% Na2EDTA.2H2in water was added, and then each was divided into two 100-μL aliquots. One aliquot was analyzed by HPLC (Method 5) and then stored at room temperature in a sealed lead container for 24 hours. The other aliquot was stored frozen (−10° C.) for 24 hours. Each sample was analyzed at t=24 h.

[3] = assay type: physicochemical; conditions: for Replicate 1 RCP % t = 0 h: ^177Lu-A (3.55 mCi avg) prepared in presence of 5 mg/mL stabilizer, HPLC Method 1, t = 0 h; for Replicate 2 RCP % t = 0 h / Replicate 2 RCP % t = 24 h: ^177Lu-A (4.37 mCi avg) prepared in presence of 5 mg/mL stabilizer; for Replicate 2 RCP % t = 0 h: HPLC Method 2, t = 0 h; for Replicate 2 RCP % t = 24 h: HPLC Method 2, t = 24 h
Procedure: (§1) The injection volume was 20 μL.
Each stabilizer was prepared at a concentration of 5 mg/mL in sodium acetate (NaOAc) buffer (0.2 M, pH 4.8). To lead-shielded 4-mL vials were added 200 μL of the individual stabilizer solutions, 3.55 mCi ^177LuCl3 (avg) and 5.44 μg COMPOUND A (dissolved in water). A second set of replicates of each sample was prepared, using the individual stabilizers. To these was added 4.37 mCi ^177LuCl3 (avg) and 6.7 μg (avg) COMPOUND A (dissolved in water). The ratio of COMPOUND A to lutetium was 3:1 for all samples. The reaction mixture was heated to 100° C. for 5 minutes then cooled for 5 minutes in an ambient-temperature water bath. To each sample, 10 μL of 2% Na2EDTA.2H2O in water was added, then each was analyzed by HPLC (Method 1 for the first set of replicates; Method 2 for the second set of replicates). The second set of replicates were stored and analyzed again at t=24 h.

[4] = assay type: physicochemical; conditions: for RCP % t = 0 h: ^177Lu-A (5.25 mCi avg) prepared in presence of stabilizer ~3.33 mg/mL
Procedure: as §1
Ethionamide was prepared at a 10 mg/mL concentration by dissolving it in EtOH. […] Another sample was prepared to which was added 100 μL of ethanol only (no stabilizer), for use as a control sample. […] The reaction mixture was heated to 100° C. for 5 minutes then cooled for 5 minutes in an ambient-temperature water bath. To each sample, 10 μL of 2% Na2EDTA.2H2O in water was added, and then each was analysed by HPLC (Method 2) and stored at room temperature for up to 96 hours.

[5] = assay type: physicochemical; conditions: ^177Lu-A 13.9 mCi/mL, stabilizer 5 mg/mL added after complex preparation, room temperature
Procedure: as §1
Compounds containing the —C═S moiety [dithiocarbamates and ethionamide] were examined in this study.
Each individual stabilizer was prepared at a concentration of 10 mg/mL in water. Ethionamide was dissolved in EtOH. […] The reaction mixture was heated to 100° C. for 5 minutes, then cooled for 5 minutes in an ambient-temperature water bath. […] To an aliquot, 100 μL of one of the stabilizer solutions (1 mg of stabilizer) was added. Each aliquot was analyzed (t=0 h) by HPLC (Method 2) and stored at room temperature for 48 hours. All samples were analyzed again at t=24 h and 48 h.

[6] = assay type: physicochemical; conditions: for RCP % t = 0 h: ^177Lu-A (5.28 mCi avg) prepared in presence of stabilizer 3.33 mg/mL; for RCP (%) t = 72 h: ^177Lu-A prepared and stored in presence of stabilizer 3.33 mg/mL, room temperature
Procedure: 10 mg/mL solutions of thiamine hydrochloride and L-glutathione were prepared by disserving them in water. 10 mg/mL solutions of 3-hydroxycinnamic acid, 4-hydroxyantipyrine and acetylsalicylic acid were prepared by dissolving them in 50% EtOH/water. 10 mg/mL solutions of 2-hydroxybenzothiazole and 2,1,3-benzothiadiazole were prepared by dissolving them in EtOH.

[7] = Radiostability (RCP, Met═O by HPLC) of preformed ^177Lu-A with individual amino acids added (Example 1); assay type: physicochemical; conditions: amino acid 6.6 mg/mL, room temperature; for 0-1 h RCP (%): ^177Lu-A ~20 mCi/mL (3.5 mCi total); for 24-h RCP (%) / 48-h RCP (%): ^177Lu-A ~20 mCi/mL
Procedure: as §1
Solutions of the individual amino acids L-Methionine, L-Selenomethionine, L-cysteine HCl.H2O, L-Tryptophan, L-Histidine, and Glycine were prepared at a concentration of 10 mg/mL in 10 mM Dulbecco's phosphate-buffered saline, pH 7.0 [PBS].
The final radioactive concentration of each sample was ˜20 mCi/mL.

[8] = assay type: physicochemical
Procedure: The reaction vial was crimp-sealed and heated at 100° C. for 5 min. […] The sample was stored in an autosampler in which the temperature is ˜6° C. […] than room temperature, and analyzed by RP-HPLC for up to 24 hours.
L-Selenomethionine: ^177Lu-B was prepared, diluted and analyzed as described above, but 5 mg of L-Se-Met was used in place of PDTC, the heating time was 10 minutes, and the quantity of radioactivity used was 52 mCi.
L-cysteine ethyl ester, HCl: ^177Lu-B was prepared, diluted and analyzed as described above, but 5 mg of L-CEE, hydrochloride salt was used in place of PDTC, the heating time was 5 minutes and the quantity of radioactivity used was 50 mCi.
L-cysteine HCl.H2O: ^177Lu-B was prepared, diluted and analyzed as described above, but 5 mg of L-Cys HCl.H2O was used in place of PDTC, the heating time was 8 minutes and the quantity of radioactivity used was 53 mCi.

[9] = ^177Lu-A prepared in presence of stabilizer ~3.33 mg/mL, room temperature

## CSCC[C@@H](N)C(=O)O [D-Methionine]
[1]
  RCP % t = 24 h (frozen): 100%
  RCP % t = 24 h (room temp): 99.6%
  RCP % t = 0 h: 100%
[2]
  RCP % t = 24 h (frozen): 100%
  RCP % t = 24 h (room temp): 100%
  RCP % t = 0 h: 100%
[3]
  Replicate 1 RCP % t = 0 h: 100%
  Replicate 2 RCP % t = 0 h: 97.6%
  Replicate 2 RCP % t = 24 h: 80.7%

## CCN(CC)C(=S)S [Sodium diethyldithiocarbamate trihydrate, Diethyldithiocarbamate sodium salt]
[4]
  RCP % t = 0 h: 52.8%
[4]; [9]
  RCP % t = 24 h: 0%
[5]
  RCP % t = 0 h: 97.8%
  RCP % t = 24 h: 97.1%
  RCP % t = 48 h: 96.2%

## O=C1O[C@H]([C@@H](O)CO)C([O-])=C1O.[Na+] [Ascorbic acid, Sodium L-ascorbate (Ascorbic acid)]
[1]
  RCP % t = 24 h (frozen): 78.4%
  RCP % t = 24 h (room temp): 88.1%
[2]
  RCP % t = 0 h: 98.7%
[3]
  Replicate 1 RCP % t = 0 h: 87.6%
  Replicate 2 RCP % t = 0 h: 30.2%
  Replicate 2 RCP % t = 24 h: 24.5%

## Cc1ncc(C[n+]2csc(CCO)c2C)c(N)n1 [Thiamine hydrochloride, reference compound]
[6]
  RCP % t = 0 h: 97.0%
  RCP (%) t = 72 h: 0%

## N[C@@H](Cc1c[nH]cn1)C(=O)O [Histidine, L-Histidine]
[7]
  0-1 h RCP (%): 92.5%
  24-h RCP (%): 4.6%
  48-h RCP (%): 0%

## O=C([O-])c1cc(O)ccc1O.[Na+] [Gentisic acid, 2,5-Dihydroxybenzoic acid sodium salt hydrate (Gentisic acid)]
[1]
  RCP % t = 24 h (frozen): 82.8%
  RCP % t = 24 h (room temp): 78.6%
  RCP % t = 0 h: 100%
[2]
  RCP % t = 24 h (frozen): 84.3%
  RCP % t = 24 h (room temp): 64.9%
  RCP % t = 0 h: 100%
[3]
  Replicate 1 RCP % t = 0 h: 93.9%
  Replicate 2 RCP % t = 0 h: 96.6%
  Replicate 2 RCP % t = 24 h: 75.2%

## Oc1nc2ccccc2s1 [2-Hydroxybenzothiazole]
[6]
  RCP % t = 0 h: 96.2%
  RCP (%) t = 72 h: 9.6%

## CC(=O)Oc1ccccc1C(=O)O [Acetylsalicylic acid, Acetylsalicyclic acid, reference compound]
[6]
  RCP % t = 0 h: 73.0%
  RCP (%) t = 72 h: 0%

## NCC(=O)O [Glycine]
[7]
  0-1 h RCP (%): 96.4%
  24-h RCP (%): 14.6%
  48-h RCP (%): 0%

## c1ccc2nsnc2c1 [2,1,3-Benzothiadiazole]
[6]
  RCP % t = 0 h: 98.6%
  RCP (%) t = 72 h: 3.1%

## O=C(O)/C=C/c1cccc(O)c1 [3-Hydroxycinnamic acid]
[6]
  RCP % t = 0 h: 96.6%
  RCP (%) t = 72 h: 0%

## N[C@@H](Cc1c[nH]c2ccccc12)C(=O)O [Tryptophan, L-Tryptophan]
[7]
  0-1 h RCP (%): 95.5%
  24-h RCP (%): 51.4%
  48-h RCP (%): 18.2%

## Cc1c(O)c(=O)n(-c2ccccc2)n1C [4-Hydroxyantipyrine]
[6]
  RCP % t = 0 h: 99.9%
  RCP (%) t = 72 h: 0%

## S=c1[nH]c(=S)[nH]c(=S)[nH]1 [Trithiocyanuric acid trisodium salt nonahydrate]
[4]
  RCP % t = 0 h: 100%
[4]; [9]
  RCP % t = 24 h: 100%
[4]; ^177Lu-A prepared in presence of stabilizer ~3.33 mg/mL, room temperature, 96 h
  RCP % t = 96 h: 0%
[5]
  RCP % t = 0 h: 96.9%
  RCP % t = 24 h: 95.9%
  RCP % t = 48 h: 100%

## N[C@@H](CCC(=O)N[C@@H](CS)C(=O)NCC(=O)O)C(=O)O [L-Glutathione, L-Glutathione, reduced]
[6]
  RCP % t = 0 h: 91.1%
  RCP (%) t = 72 h: 0%

## N[C@@H](CS)C(=O)O [L-cysteine, L-cysteine hydrochloride monohydrate]
[1]
  RCP % t = 24 h (frozen): 51.0%
  RCP % t = 24 h (room temp): 88.3%
  RCP % t = 0 h: 100%
[2]
  RCP % t = 24 h (frozen): 82.1%
  RCP % t = 24 h (room temp): 83.3%
  RCP % t = 0 h: 100%
[8]; ^177Lu-B (44-53 mCi) formulated with 5 mg stabilizing compound, 3 h
  (% RCP) 3-h: 94.7%
[8]; ^177Lu-B (44-53 mCi) formulated with 5 mg stabilizing compound, 6 h
  (% RCP) 6-h: 87.3%
[8]; ^177Lu-B (44-53 mCi) formulated with 5 mg stabilizing compound, 9 h
  (% RCP) 9-h: 79.4%
[8]; ^177Lu-B (44-53 mCi) formulated with 5 mg stabilizing compound, 12 h
  (% RCP) 12-h: 73.6%
[8]; ^177Lu-B (44-53 mCi) formulated with 5 mg stabilizing compound, 24 h
  (% RCP) 24-h: 50.9%
[8]; ^177Lu-B (44-53 mCi) formulated with 5 mg stabilizing compound, diluted to ~2 mL, ~6° C. above room temperature, 0 h
  (% RCP) 0-h: 99.1%
[8]; ^177Lu-B formulated with 5 mg stabilizing compound, 0 to 24 h
  RCP Drop over 24 hr: 48.2%
[3]
  Replicate 1 RCP % t = 0 h: 93.3%
  Replicate 2 RCP % t = 0 h: 91.0%
  Replicate 2 RCP % t = 24 h: 67.4%
